Results taken from article PMC4437985, “Inhibition of a Putative Dihydropyrimidinase from Pseudomonas aeruginosa PAO1 by Flavonoids and Substrates of Cyclic Amidohydrolases” (PLoS ONE, 2015).
“Also recorded” adds a separate entry of the source. Read-outs that look alike come from different tables or passages of the source.

Tests used:
[1] = target: T1, dihydropyrimidinase from P. aeruginosa PAO1 (Pseudomonas aeruginosa, UniProt Q9I676); assay: Spectrophotometric enzyme assay: inhibition of dihydropyrimidinase; assay type: biochemical; conditions: for Inhibitory effect on dihydropyrimidinase activity: 5-propyl-hydantoin or dihydrouracil as substrate
Description: (§1) A rapid spectrophotometric assay was used to determine the enzymatic activity according to a previously described protocol for hydantoinase, allantoinase, dihydroorotase, and imidase. Dihydrouracil, 5-propyl-hydantoin, and phthalimide were used as substrates. Unless explicitly stated otherwise, dihydrouracil (2 mM) was used as the substrate in the standard assay of dihydropyrimidinase. Briefly, the decrease in absorbancy at 230, 248, and 298 nm was measured upon hydrolysis of dihydrouracil, 5-propyl-hydantoin, and phthalimide as the substrate at 25°C, respectively. To start the reaction, the purified dihydropyrimidinase (10–70 μg) was added to a 2 mL solution containing the substrate and 100 mM Tris–HCl (pH 8.0). Substrate hydrolysis was monitored with a UV/vis spectrophotometer (Hitachi U 3300, Hitachi High-Technologies, Tokyo, Japan). The extinction coefficient of each substrate was determined experimentally by direct measurement with a spectrophotometer. The extinction coefficients of dihydrouracil, 5-propyl-hydantoin, and phthalimide were 0.683 mM^-1cm^-1 at 230 nm, 0.0538 mM^-1cm^-1 at 248 nm, and 3.12 mM^-1cm^-1 at 298 nm, respectively. The initial rates of change were a function of enzyme concentration within the absorbance range of 0.01–0.18 min^-1. A unit of activity was defined as the amount of enzyme catalyzing the hydrolysis of 1 μmol substrate/min, and the specific activity was expressed in terms of units of activity per milligram of enzyme. The kinetic parameters K m and V max were determined from a non-linear plot by fitting the hydrolyzing rate from individual experiments to the Michaelis–Menten equation (Enzyme Kinetics module of Sigma-Plot; Systat Software, Chicago, IL, USA).

[2] = target: T1, dihydropyrimidinase from P. aeruginosa PAO1; assay: Substrate specificity / Michaelis-Menten kinetics of dihydropyrimidinase; assay type: biochemical; conditions: for Fold: V max/K m relative to dihydrouracil; for K m / V max / V max/K m: compound as substrate
Description: as §1

[3] = target: T1, dihydropyrimidinase from P. aeruginosa PAO1; assay type: biochemical
[4] = target: P. aeruginosa dihydropyrimidinase (Pseudomonas aeruginosa, UniProt Q9I676); assay: Fluorescence quenching of wild-type dihydropyrimidinase; assay type: binding; conditions: for Quenching of intrinsic fluorescence / Red shift in emission wavelength: wild-type enzyme; for Quenching of intrinsic fluorescence: 50 μM compound; for Red shift in emission wavelength: λmax from 333.5 nm
Description: (§2) The dissociation constants (K d) of dihydropyrimidinase was determined using the fluorescence quenching method as previously described for allantoinase, dihydroorotase, and DnaB helicase. An aliquot of each compound was added into the solution containing dihydropyrimidinase (0.8 μM), 50 mM HEPES at pH 7.0. The decrease in intrinsic fluorescence of protein was measured at 334.5 nm upon excitation at 279 nm and 25°C with a spectrofluorimeter (Hitachi F-2700; Hitachi High-Technologies, Tokyo, Japan). At least seven data points were used to calculate each K d. Each data point was an average of 2–3 determinants, and the difference of the determinants was within 10%. The K d was obtained by the equation: ΔF = ΔFmax-K d(ΔF/[compound]) (Enzyme Kinetics module of Sigma-Plot; Systat Software, Chicago, IL, USA).

[5] = target: N337A mutant of P. aeruginosa dihydropyrimidinase (Pseudomonas aeruginosa, UniProt Q9I676, N337A); assay: Fluorescence quenching of the N337A mutant; assay type: binding, Pseudomonas aeruginosa PAO1; conditions: for Red shift in λmax: N337A mutant, from 333.5 nm
Description: The dihydropyrimidinase mutants (H59A, H61A, K150A, Y155A, H183A, H239A, S289A, D316A, and N337A) were generated according to the manufacturer’s protocol (Stratagene, LaJolla, CA). The presence of the mutation was verified by DNA sequencing in each construct.
as §2

[6] = substrate and inhibitor analogs of other cyclic amidohydrolases, read-out: IC50
[7] = metal ion 1 mM added to reaction mixture, enzyme purified without metal supplement, dihydrouracil substrate
[8] = specific activity relative to no metal added, metal ion 1 mM
[9] = 40 μM dihydromyricetin, dihydrouracil substrate
[10] = IC50, 5-propyl-hydantoin as substrate
[11] = IC50, dihydrouracil as substrate

N337A mutant of P. aeruginosa dihydropyrimidinase, sequence (Q9I676 whole entry N337A): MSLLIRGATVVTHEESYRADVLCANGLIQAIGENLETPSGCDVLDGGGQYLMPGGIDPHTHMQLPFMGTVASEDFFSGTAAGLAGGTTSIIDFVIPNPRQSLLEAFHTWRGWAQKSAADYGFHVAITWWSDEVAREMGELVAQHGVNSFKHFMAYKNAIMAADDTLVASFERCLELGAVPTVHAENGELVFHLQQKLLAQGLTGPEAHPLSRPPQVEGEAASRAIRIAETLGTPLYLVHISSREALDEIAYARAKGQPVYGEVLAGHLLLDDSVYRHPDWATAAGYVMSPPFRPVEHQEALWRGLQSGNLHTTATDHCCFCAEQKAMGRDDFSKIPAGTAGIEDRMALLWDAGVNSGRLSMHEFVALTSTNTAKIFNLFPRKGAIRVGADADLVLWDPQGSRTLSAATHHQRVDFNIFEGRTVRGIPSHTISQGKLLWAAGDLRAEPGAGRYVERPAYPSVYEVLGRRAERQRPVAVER
T1 sequence (Q9I676 whole entry): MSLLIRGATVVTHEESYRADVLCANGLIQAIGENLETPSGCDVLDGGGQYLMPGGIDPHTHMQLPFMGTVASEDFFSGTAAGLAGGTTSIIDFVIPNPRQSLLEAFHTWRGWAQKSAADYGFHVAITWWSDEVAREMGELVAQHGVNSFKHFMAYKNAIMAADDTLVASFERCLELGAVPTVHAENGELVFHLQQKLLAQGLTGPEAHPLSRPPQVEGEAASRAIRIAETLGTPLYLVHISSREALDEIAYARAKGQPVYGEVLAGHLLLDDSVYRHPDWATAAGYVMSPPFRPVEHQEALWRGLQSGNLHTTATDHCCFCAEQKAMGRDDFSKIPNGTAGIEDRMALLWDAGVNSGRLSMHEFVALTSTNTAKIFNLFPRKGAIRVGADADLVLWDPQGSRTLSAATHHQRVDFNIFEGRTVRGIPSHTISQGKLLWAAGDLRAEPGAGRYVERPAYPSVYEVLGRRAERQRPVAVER
P. aeruginosa dihydropyrimidinase, sequence (Q9I676 whole entry): as above

Q: What does the source list for `Nc1nc[nH]n1` [3-amino-1,2,4-triazole]?
A: Concentration that affected enzyme activity [1]: 100 to 750 mM; IC50 range [1]: within the millimolar range; Inhibitory effect on dihydropyrimidinase activity [1]: slightly inhibit

Q: Which results are given for `O=C(O)CC1NC(=O)NC1=O` (centres unmarked) [5-hydantoin acetic acid]?
A: IC50 range [1]: within the millimolar range; Inhibitory effect on dihydropyrimidinase activity [1]: only slightly inhibit; IC50 [1, 6]: ~50000 µM

Q: Which “Catalytic efficiency toward dihydrouracil higher than toward this substrate” value [2] does the source give for `CCCC1NC(=O)NC1=O` (centres unmarked) [5-propyl-hydantoin] here?
A: Its value is 100 fold.

Q: What about the Fold [2] of the same compound?
A: The Fold was 0.01.

Q: What about the K m [2] of the same compound?
A: Its K m is 8100 ± 1500 µM.

Q: And the V max [2]?
A: The V max was 1.2 ± 0.1 µmol/mg/min.

Q: And the “V max/K m” value [2]?
A: The value was 0.15.

Q: For `[Ca+2].[Cl-].[Cl-]` [CaCl2], which “Effect of metal addition on dihydropyrimidinase activity” value (“Effect of metal addition” for short) ([3]; 1 mM added to reaction mixture) is on record?
A: Its value is “not useful”.

Q: And the Specific activity [3, 7]?
A: The Specific activity was 0.82 ± 0.05 µmol/mg/min.

Q: What about the Fold [3, 8] of the same compound?
A: Its Fold is 1.0.

Q: Which “Effect of metal addition” value ([3]; 1 mM added to reaction mixture) does the source give for `[Cl][Cd][Cl]` [CdCl2] here?
A: Its value is “not useful”.

Q: And the Specific activity [3, 7]?
A: Its Specific activity is 0.74 ± 0.04 µmol/mg/min.

Q: And the Fold [3, 8]?
A: Its Fold is 0.9.

Q: `[Cl-].[Cl-].[Co+2]` [CoCl2] was tested. Which “Effect of metal addition” value [3] did it give?
A: Its value is “activated”.

Q: What about the Fold [3] of the same compound?
A: Its Fold is 7.1.

Q: And the Specific activity [3]?
A: Its Specific activity is 5.80 ± 0.16 µmol/mg/min.

Q: What about the “Specific activity toward dihydrouracil” value [3] of the same compound?
A: Its value is 5.9 ± 0.4 µmol/mg/min.

Q: How did the “Effect of metal addition” value ([3]; 1 mM added to reaction mixture) turn out when `[Cl-].[Cl-].[Mg+2]` [MgCl2] was run?
A: Its value is “not useful”.

Q: And the Specific activity [3, 7]?
A: Its Specific activity is 0.82 ± 0.05 µmol/mg/min.

Q: What about the Fold [3, 8] of the same compound?
A: The Fold was 1.0.

Q: With `[Cl][Mn][Cl]` [MnCl2] as the compound, how does the “Effect of metal addition” value ([3]; 1 mM added to reaction mixture) read?
A: The value was “activated”.

Q: What about the Specific activity [3, 7] of the same compound?
A: The Specific activity was 1.72 ± 0.09 µmol/mg/min.

Q: What about the Fold [3, 8] of the same compound?
A: Its Fold is 2.1.

Q: How did the “Effect of metal addition” value ([3]; 1 mM added to reaction mixture) turn out when `[Cl][Ni][Cl]` [NiCl2] was run?
A: Its value is “not useful”.

Q: What about the Specific activity [3, 7] of the same compound?
A: The Specific activity was 0.91 ± 0.06 µmol/mg/min.

Q: What about the Fold [3, 8] of the same compound?
A: The Fold was 1.1.

Q: Which results are given for `[Cl-].[Cl-].[Zn+2]` [ZnCl2]?
A: Effect of metal addition on dihydropyrimidinase activity ([3]; 1 mM added to reaction mixture): activated; Specific activity [3, 7]: 2.90 ± 0.10 µmol/mg/min; Fold [3, 8]: 3.5

Q: Which “IC50 range” value [1] does the source give for `CC(=O)NO` [acetohydroxamate] here?
A: The value was “within the millimolar range”.

Q: What about the “Inhibitory effect on dihydropyrimidinase activity” value [1] of the same compound?
A: Its value is “only slightly inhibit”.

Q: `NC(=O)NC1NC(=O)NC1=O` (centres unmarked) [allantoin] was tested. Which “IC50 range” value [1] did it give?
A: Its value is “within the millimolar range”.

Q: What about the “Inhibitory effect on dihydropyrimidinase activity” value [1] of the same compound?
A: Its value is “slightly inhibit; also recorded: only slightly inhibited”.

Q: What about the K m [2] of the same compound?
A: Its K m is “Not hydrolyzed”.

Q: And the V max [2]?
A: Its V max is “Not hydrolyzed”.

Q: How did the “Inhibition stronger than the substrate analogs” value [1] turn out when `O=C1c2c(O)cc(O)cc2O[C@H](c2cc(O)c(O)c(O)c2)[C@H]1O` [dihydromyricetin] was run?
A: Its value is > 3 orders of magnitude.

Q: What about the “K m in the presence of inhibitor” value [1, 9] of the same compound?
A: The value was 1600 ± 200 µM.

Q: What about the “V max in the presence of inhibitor” value [1, 9] of the same compound?
A: The value was 5.4 ± 0.4 µmol/mg/min.

Q: And the “Type of inhibition (Lineweaver-Burk plot)” value ([1]; 40 μM inhibitor, different concentrations of dihydrouracil)?
A: The value was “competitive inhibitor”.

Q: What about the “Inhibitory effect on dihydropyrimidinase activity” value [1] of the same compound?
A: Its value is “significant inhibitory effect”.

Q: And the IC50 [1, 10]?
A: The IC50 was 40 µM.

Q: And the IC50 [1, 11]?
A: Its IC50 is 48 µM.

Q: What about the Kd [4] of the same compound?
A: Its Kd is 22.6 µM.

Q: What about the “Quenching of intrinsic fluorescence” value [4] of the same compound?
A: The value was 89.1%.

Q: What about the “Red shift in emission wavelength” value [4] of the same compound?
A: Its value is ~ 25 nm.

Q: And the Kd [5]?
A: Its Kd is 24.1 ± 1.7 µM.

Q: And the “Red shift in λmax” value [5]?
A: Its value is ~ 23.5 nm.

Q: Which “IC50 range” value [1] does the source give for `O=C1CC(C(=O)O)NC(=O)N1` (centres unmarked) [dihydroorotate] here?
A: Its value is “within the millimolar range”.

Q: And the “Inhibitory effect on dihydropyrimidinase activity” value [1]?
A: The value was “slightly inhibit; also recorded: only slightly inhibited”.

Q: And the IC50 [1, 6]?
A: Its IC50 is roughly 30000 µM.

Q: What about the K m [2] of the same compound?
A: Its K m is “Not hydrolyzed”.

Q: And the V max [2]?
A: Its V max is “Not hydrolyzed”.

Q: With `O=C1CCNC(=O)N1` [dihydrouracil] as the compound, how does the Fold [2] read?
A: Its Fold is 1.0.

Q: And the K m [2]?
A: The K m was 700 ± 100 µM.

Q: And the V max [2]?
A: Its V max is 7.6 ± 0.4 µmol/mg/min.

Q: And the “V max/K m” value [2]?
A: The value was 10.9.

Q: With `O=c1c(O)c(-c2ccc(O)cc2)oc2cc(O)cc(O)c12` [kaempferol] as the compound, how does the “Inhibitory effect” value ([1]; 5-propyl-hydantoin as substrate) read?
A: The value was “only slightly inhibited”.

Q: What about the “Inhibitory effect” value ([1]; dihydrouracil as substrate) of the same compound?
A: The value was “significant”.

Q: What about the IC50 ([1]; dihydrouracil as substrate, read-out: IC50) of the same compound?
A: The IC50 was 50 ± 2 µM.

Q: Which results are given for `O=c1c(O)c(-c2cc(O)c(O)c(O)c2)oc2cc(O)cc(O)c12` [myricetin]?
A: Inhibitory effect on dihydropyrimidinase activity [1]: strongly inhibit; IC50 [1, 10]: 63 ± 3 µM; IC50 [1, 11]: 83 ± 3 µM; Inhibitory effect ([1]; dihydrouracil as substrate): significant; Kd [4]: 28.8 ± 2.2 µM; Quenching of intrinsic fluorescence [4]: 56.2%; Red shift in emission wavelength [4]: ~ 7 nm; Red shift in λmax [5]: ~ 7.5 nm

Q: Which “IC50 range” value [1] does the source give for `O=C(O)c1cc(=O)[nH]c(=O)[nH]1` [orotic acid] here?
A: The value was “within the millimolar range”.

Q: And the “Inhibitory effect on dihydropyrimidinase activity” value [1]?
A: Its value is “slightly inhibit”.

Q: With `O=C1NC(=O)c2ccccc21` [phthalimide] as the compound, how does the “Catalytic efficiency toward dihydrouracil higher than toward this substrate” value [2] read?
A: The value was “fourfold”.

Q: And the Fold [2]?
A: Its Fold is 0.25.

Q: And the K m [2]?
A: The K m was 1000 ± 300 µM.

Q: What about the V max [2] of the same compound?
A: The V max was 2.7 ± 0.6 µmol/mg/min.

Q: What about the “V max/K m” value [2] of the same compound?
A: Its value is 2.7.

Q: Which “Inhibitory effect on dihydropyrimidinase activity” value [1] does the source give for `O=c1c(O)c(-c2ccc(O)c(O)c2)oc2cc(O)cc(O)c12` [quercetin] here?
A: The value was “insignificant”.

Q: With myricitrin as the compound, how does the “Inhibitory effect on dihydropyrimidinase activity” value [1] read?
A: The value was “No effect”.
